From patent US10092493B2, “Composition of skin external application for anti-aging” (AMOREPACIFIC CORPORATION, priority 2005, dated 2018)

Legend:
MMP-2 = experiment: Inhibition of MMP-2 biosynthesis after UV irradiation (gelatin zymography); type: cell-based; settings: human keratinocytes, UV-B 30 mJ/cm^2, 10 ppm test substance, 2 days; UV control = 100
Protocol: (§1) After 24 hours, the plate was irradiated by UV-B at 30 mJ/cm^2. The media were exchanged with new medium containing 10 ppm of each test substance. After 2 days of cultivation, each supernatant was harvested and subjected to the zymography using gelatine gel to obtain produced MMP-2 and MMP-9, quantities of which were then measured by a densitometer.

MMP-9 = experiment: Inhibition of MMP-9 biosynthesis after UV irradiation (gelatin zymography); type: cell-based; settings: human keratinocytes, UV-B 30 mJ/cm^2, 10 ppm test substance, 2 days; UV control = 100
Protocol: as §1

pro-collagen = experiment: Biosynthesis of collagen (pro-collagen ELISA) in fibroblasts; type: cell-based, Human; settings: 48 hours, un-treated control = 100
Protocol: Human fibroblasts were cultured in a 48-well plate type incubator at a concentration of 10^4. The media were exchanged with new medium (theanine: 1, 10, 100 um) containing each test substance of Table 7 at a concentration of 0.001 μM, 0.01 μM, 0.1 μM, 0.5 μM and 2 μM. After 48 hours of cultivation, each supernatant was harvested and subjected to ELISA (Takara MK101) to measure the amount of produced pro-collagen.
Also, in order to examine the synergic effect of theanine on collagen biosynthesis, theanine 10 μM was added to catechin at different 4 concentrations and the result is shown in Table 8.

[1] = molecular target: T1, PPAR-α (Peroxisome Proliferator Activated Receptor-alpha) (Homo sapiens, UniProt Q07869); experiment: Activation of PPAR-α, luciferase reporter in CV-1 cells; type: cell-based; settings: 24 hours, negative control and non-treated group = 1.0
T1 construct: expressed in transfected cells; host or cells: CV-1 monkey kidney epithelial cells (ATCC CCL 70)
T1 sequence (Q07869 1-468): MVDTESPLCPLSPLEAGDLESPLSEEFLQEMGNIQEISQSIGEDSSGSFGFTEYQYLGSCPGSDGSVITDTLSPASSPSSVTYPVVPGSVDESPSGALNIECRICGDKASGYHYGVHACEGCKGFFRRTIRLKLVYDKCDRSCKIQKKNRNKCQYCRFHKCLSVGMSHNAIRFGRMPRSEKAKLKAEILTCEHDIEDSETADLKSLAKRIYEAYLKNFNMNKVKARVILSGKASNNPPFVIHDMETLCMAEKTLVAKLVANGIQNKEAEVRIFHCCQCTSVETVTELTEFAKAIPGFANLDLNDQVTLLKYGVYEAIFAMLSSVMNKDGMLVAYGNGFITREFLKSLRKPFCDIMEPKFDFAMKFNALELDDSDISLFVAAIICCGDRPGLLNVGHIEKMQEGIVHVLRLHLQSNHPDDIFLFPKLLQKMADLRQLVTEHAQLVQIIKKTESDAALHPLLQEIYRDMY
Protocol: Monkey kidney epithelial cell line CV-1 (ATCC CCL 70) was subcultured in a DMEM medium containing 10% fetal bovine serum treated with charcol/dextran, which was a phenol red-free medium to remove the effect by estrogen of phenol red.
CV-1 cells were distributed in a 24-well plate type incubator at a concentration of 5×10^4. After 24 hours cultivation, the 3 different plasmids were transient transfected. After 24 hours cultivation, the plate was washed with 1×PBS (Phosphate Buffered Saline) and treated with ligand candidates at various concentrations. After 24 hours cultivation, the plate was washed with 1×PBS and the cells were lyzed with 1×PLB (Passive Lysis Buffer) and measured for luciferase activity using Dual-Luciferase® Reporter Assay System kit.

[2] = tested on: Type I Collagenase (MMP-1); experiment: Inhibition of type I collagenase (MMP-1) biosynthesis after UV-A irradiation, test substances (ELISA); type: cell-based; settings: new born human fibroblasts, UV-A 15 J/cm^2, 10 μM or 10 ppm, UV negative control = 100; for Type I collagenase biosynthesis (%), UV-A + TNF-α treated group: plus TNF-α 10 ng/ml
Protocol: To describe the experiment method in detail, human fibroblasts isolated from the skin of a new born baby were cultured in a 48-well plate type incubator at a concentration of 10^4. After 24 hours, the plate was irradiated by UV-A at 15 J/cm^2. […] At the second day of cultivation, the supernatants were harvested and subjected to ELISA (AP biotech RPN2610) to determine the amount of produced type I collagenase. As the positive control, Wy-14,643 and retinoic acid (RA) were used.

type VII collagen = experiment: Biosynthesis of type VII collagen in fibroblasts (Dot Blot); type: cell-based; settings: human fibroblasts, 10 ppm, 24 hours; control = 100
Protocol: The media were exchanged with new medium containing 10 ppm of each test substance. After 24 hours of cultivation, each supernatant was harvested and subjected to the Dot Blot method to measure the amount of produced type VII collagen.

type IV collagen = experiment: Biosynthesis of type IV collagen in keratinocytes (Dot Blot); type: cell-based; settings: human keratinocytes, 10 ppm, 24 hours; control = 100
Protocol: The media were exchanged with new medium containing 10 ppm of each test substance. After 24 hours of cultivation, each supernatant was harvested and subjected to the Dot Blot method to measure the amount of produced type IV collagen.

laminin 10/11 = experiment: Biosynthesis of laminin 10/11 in keratinocytes (Western Blot); type: cell-based; settings: human keratinocytes, 10 ppm, 24 hours; control = 100
Protocol: Human keratinocytes were cultured in a 24-well plate type incubator at a concentration of 5×10^4. The media were exchanged with new medium containing 10 ppm of each test substance. After 24 hours of cultivation, each supernatant was harvested and subjected to the Western Blot method to measure the amount of produced laminin 10/11.

[3] = tested on: Tumor Necrosis Factor alpha (TNF-α); experiment: Inhibition of TNF-α biosynthesis after UV irradiation (ELISA); type: cell-based; settings: human keratinocytes, UV-B 30 mJ/cm^2, 10 μM (10 ppm of extract), 6 to 24 hours; UV control = 100
Protocol: Human keratinocytes were cultured in a 12-well plate type incubator at a concentration of 10^4. The plate was irradiated by UV-B at 30 mJ/cm^2. The media were exchanged with new medium containing 10 μM of each test substance (10 ppm of extract). After 6 to 24 hours of cultivation, the cells were harvested and subjected to ELISA (Pharmingen 555212) to determine the amount of produced tumor necrosis factor α (TNF-α). As the positive control, Wy-14,643 was used.

[4] = tested on: Type I Collagenase (MMP-1); experiment: Type I collagenase (MMP-1) biosynthesis with UV-A, TNF-α and antibody against TNF-α (ELISA); type: cell-based, Human
Protocol: Human fibroblasts isolated from the skin of new born baby were cultured in a 48-well plate type incubator at a concentration of 10^4. after 24 hours, the plate was irradiated by UV-A at 15 J/cm^2 and antibody against tumor necrosis factor alpha was added thereto in a concentration of 1 ug/ml. At the second day of cultivation, the supernatants were harvested and subjected to ELISA (AP biotech RPN2610) to determine the amount of produced type I collagenase. The result is shown in Table 15 as comparative values, referred to 100 of control which was not treated.

PPAR-α activity ([1]; 10 μM) | PPAR-α activity ([1]; 100 μM) | type I collagenase, UV-A irradiated group, column headed TNF-α treated group ([4]; UV-A 15 J/cm^2, antibody against TNF-α 1 ug/ml, untreated control = 100 (UV-A without antibody 210)) | type I collagenase, TNF-α treated group, No-Antibody treated group ([4]; new born human fibroblasts, untreated control = 100) | Molecule | MMP-2 (%) (MMP-2) | MMP-9 (%) (MMP-9) | Collagen biosynthesis (pro-collagen; 0.001 μM) | Collagen biosynthesis (pro-collagen; 0.01 μM) | Collagen biosynthesis (pro-collagen; 0.1 μM) | Collagen biosynthesis (pro-collagen; 0.5 μM) | Collagen biosynthesis (pro-collagen; 2 μM) | Type I collagenase biosynthesis (%), UV-A + TNF-α treated group [2] | Type I collagenase biosynthesis (%), UV-A irradiated group [2] | type VII collagen biosynthesis (%) (type VII collagen) | Type IV collagen biosynthesis (%) (type IV collagen) | laminin 10/11 biosynthesis (%) (laminin 10/11) | TNF-α biosynthesis (%) [3]
1.0 | 1.5 | – | – | O=C(O[C@@H]1Cc2c(O)cc(O)cc2O[C@@H]1c1cc(O)c(O)c(O)c1)c1cc(O)c(O)c(O)c1 [EGCG, epigallocatechin gallate] | 52% | 56% | 101.4 | 154.6 | 133.8 | 155.8 | 78.4 | 88% | 42% | 127% | 138% | 137% | 35%
– | 2.3 | – | – | O=C(O[C@@H]1Cc2c(O)cc(O)cc2O[C@H]1c1cc(O)c(O)c(O)c1)c1cc(O)c(O)c(O)c1 [GCG, gallocatechin gallate] | 53% | 56% | 98.9 | 138.3 | 147.0 | 157.1 | 75.2 | 86% | 43% | 121% | 135% | 131% | 27%
– | – | 134 | 250 | TNF-α | – | – | – | – | – | – | – | – | – | – | – | – | –
